According to patent publication US20230271959A1, “HETEROCYCLIC COMPOUND AS BCL-2 INHIBITOR” (Beijing Innocare Pharma Tech Co., Ltd., priority 2020, published 2023):

Legend:
[1] = target: T1, human recombinant Bcl-2 protein (Homo sapiens, UniProt P10415); assay: Fluorescence polarization test for inhibition of BCL-2 binding to FITC-BIM; conditions: 5 nM BCL-2, 5 nM FITC-BIM, read-out: FP BCL-2 IC50
T1 construct: purchased Beijing Yigiao Shenzhou Biotechnology Co., Ltd. 10195-HOSE
Experimental: Fluorescence polarization assay was used to evaluate the effect of the compounds of the present invention on the biological activity of BCL-2.
The effects of the compounds on the biological activity of BCL-2 were evaluated by determining the effects of the compounds on the binding activity of BCL-2 to leukemia pro-apoptotic protein (BIM) using an affinity assay method based on the principle of fluorescence polarization. The reaction buffer comprises the following components: PBS (pH 7.4, 3 mM Na2HPO4, 155 mM NaCl, 1 mM KH2PO4), 1 mM DTT; human recombinant Bcl-2 protein (Item No. 10195-HOSE) (purchased from Beijing Yigiao Shenzhou Biotechnology Co., Ltd.) was diluted to 5 nM with the reaction buffer; FITC-labeled BIM polypeptide (purchased from Nanjing GenScript Biotechnology Co., Ltd.) was diluted to 5 nM with the reaction buffer.
The compounds were dissolved in 100% DMSO and diluted to 0.1, 1, 10 μM, followed by 4-fold serial dilutions with DMSO to a minimum concentration of 0.0061, 0.061, 0.61 nM, each concentration point was further diluted 50-fold with the reaction buffer.
3 μL of solution containing the compound and 12 μL of solution containing BCL-2 were added to the black 384-well assay plate, mixed well, and incubated at room temperature for 15 minutes. Subsequently, 15 μL of FITC-BIM solution was added, and the reaction mixture was incubated at room temperature for 30 minutes in dark place, and then the fluorescence polarization was detected immediately on an Envision multi-mode reader (Perkin Elmer), with 480 nm as the excitation wavelength and 535 nm as the emission wavelength. In this experiment, the group without BCL-2 protein was used as a negative control (100% inhibition), and the group with BCL-2 protein but without the compound was used as a positive control (0% inhibition). The inhibition percentage of the compound to the affinity of BCL-2 can be calculated using the following equation: […]
(§1) The IC50 of the compound was calculated from 8 concentration points using XLfit (ID Business Solutions Ltd., UK) software by the following equation:
(§2) Y=Bottom+(Top−Bottom)/(1+10^((log IC50−X)*slope factor))
(§3) where Y is the inhibition percentage, X is the logarithm of the concentration of the compound to be tested, Bottom is the maximum inhibition percentage, Top is the minimum inhibition percentage, and slope factor is the slope coefficient of the curve.

[2] = system: RS4;11 cells (acute lymphoblastic leukemia cells); assay: RS4;11 cell proliferation, CellTilter-Glo luminescence cell viability assay; format: cell-based; conditions: Homo sapiens, RS4-11; CTG readout after 48 hours
Experimental: The effects of the compounds of the present invention on the proliferation of RS4;11 cells were evaluated using a luminescence cell viability assay.
A CellTilter-Glo (CTG) Assay Kit is used to detect ATP, a key indicator of the metabolism of living cells, through a unique, highly sensitive and stable luciferase. The luminescent signal generated in the assay is proportional to the number of the viable cells in the medium, therefore the cell proliferation of RS4;11 can be determined.
CellTilter-Glo reagent (Promega, G7572) is composed of CellTilter-Glo lyophilized powder and CellTilter-Glo buffer, and the lyophilized powder can be dissolved in the buffer for use.
RS4;11 cells (ATCC, CRL-1873) were cultured in RPMI1640 complete medium (Thermofisher, 72400-047) containing 10% FBS (GBICO, 10099-141) and 100 units/ml penicillin-streptomycin solution (Thermofisher, 15140122)), when the cells covered 80-90% in the culture vessel, they were digested and dispersed with 0.25% trypsin (containing EDTA) (Thermofisher, 25200056) and then planted in a white 384-well plate (Thermofisher, 164610), and then the 384-well plate was incubated overnight in a 37° C., 5% CO2 incubator. Compounds were dissolved in 100% DMSO and diluted to […], followed by 4-fold serial dilutions with DMSO to a minimum concentration of 0.061 μM, and each concentration point was further diluted 50-fold with FBS-free RPMI1640 medium. If the IC50 of the compound is very low, the initial concentration of the compound can be reduced. After overnight, 3 μL of the compound diluted in the medium was added to each well, and the mixture was gently centrifuged to mix. The group without cells was used as a negative control (100% inhibition), and the group with 0.2% DMSO was used as a positive control (0% inhibition). The 384-well plate was placed in a 37° C., 5% CO2 incubator for further cultivation. After 48 hours, the plate was taken out and equilibrated to room temperature. 15 μl of CTG reagent was added to each well, the plate was shaken gently for 3 minutes to make sure that the cell lysis was carried out thoroughly, then the plate was kept for 10 minutes to stabilize the luminescence signal, then the luminescence signal was read by EnVision (Perkin Elmer).
The inhibition percentage of the compounds to RS4;11 cell proliferation can be calculated using the following equation:
Inhibition Percentage=100−100*(signal compound-signal negative control)/(signal positive control-signal negative control)
as §1
Y=Bottom+(Top−Bottom)/(1+10^((Log IC50−X)*slope factor))
wherein, Y is the inhibition percentage, Bottom is the bottom plateau of the curve (the bottom plateau value of the S-shaped curve), Top is the top plateau of the curve (the top plateau value of the S-shaped curve), and X is the logarithm of the concentration of the compound to be tested.

[3] = target: T2, human recombinant Bcl-XL protein (Homo sapiens, UniProt Q07817); assay: Fluorescence polarization test for inhibition of BCL-XL binding to FITC-BIM; conditions: 10 nM BCL-XL, 10 nM FITC-BIM, read-out: FP BCL-XL IC50
T2 construct: purchased Beijing Yiqiao Shenzhou Biotechnology Co., Ltd. 10455-H0SE
Experimental: Fluorescence polarization assay was used to evaluate the effect of the compounds of the present invention on the biological activity of BCL-XL.
The effects of the compounds on the biological activity of BCL-XL were evaluated by detecting the effects of the compounds on the binding activity of BCL-XL to BIM using an affinity assay method based on the principle of fluorescence polarization. The reaction buffer contains the following components: PBS (pH 7.4, 3 mM Na2HPO4, 155 mM NaCl, 1 mM KH2PO4), 1 mM DTT; human recombinant Bcl-XL protein (Item No. 10455-H0SE) (purchased from Beijing Yiqiao Shenzhou Biotechnology Co., Ltd.) was diluted to 10 nM with reaction buffer; FITC-labeled BIM polypeptide (purchased from Nanjing GenScript Biotechnology Co., Ltd) was diluted to 10 nM with reaction buffer.
The compounds were dissolved in 100% DMSO and diluted to 1 μM, followed by 4-fold serial dilutions in DMSO to a minimum concentration of 0.061 nM, each concentration point was further diluted 50-fold with reaction buffer.
3 μL of solution containing the compound and 12 μL of solution containing BCL-XL were added to the black 384-well assay plate, mixed well, and incubated at room temperature for 15 minutes. Subsequently, 15 μL of FITC-BIM solution was added, and the reaction mixture was incubated at room temperature for 30 minutes in the dark place, and then the fluorescence polarization was detected immediately on an Envision multi-plate reader (Perkin Elmer), with 480 nm as the excitation wavelength and 535 nm as the emission wavelength. In this experiment, the group without BCL-XL protein was used as a negative control (100% inhibition), and the group with BCL-XL protein but without the compound was added as a positive control (0% inhibition). The inhibition percentage of the compound to the affinity of BCL-XL can be calculated using the following equation: […]
as §1, §2, §3

T1 sequence (P10415 whole entry): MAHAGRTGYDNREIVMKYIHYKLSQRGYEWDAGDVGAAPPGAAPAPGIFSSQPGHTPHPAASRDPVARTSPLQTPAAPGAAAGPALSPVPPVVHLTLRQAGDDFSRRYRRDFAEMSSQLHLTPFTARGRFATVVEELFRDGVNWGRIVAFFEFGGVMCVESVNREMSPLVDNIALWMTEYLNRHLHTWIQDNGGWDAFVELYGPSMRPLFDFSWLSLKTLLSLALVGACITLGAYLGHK
T2 sequence (Q07817 whole entry): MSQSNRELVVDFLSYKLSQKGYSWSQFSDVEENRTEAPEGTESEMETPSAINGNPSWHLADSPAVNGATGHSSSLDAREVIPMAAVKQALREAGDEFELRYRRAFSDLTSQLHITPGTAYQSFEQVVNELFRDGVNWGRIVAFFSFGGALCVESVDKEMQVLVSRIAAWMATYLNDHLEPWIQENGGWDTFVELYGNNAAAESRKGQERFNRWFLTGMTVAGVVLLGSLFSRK

C[C@@H]1CN(CC2=C(c3ccc(Cl)cc3)CC(C)(C)CC2)CCN1c1ccc(C(=O)NS(=O)(=O)c2ccc(NCC3CCOCC3)c([N+](=O)[O-])c2)c(Oc2cnc3[nH]ccc3c2)c1 [Example 8, (R)-2-((1H-pyrrolo[2,3-b]pyridin-5-yl)oxy)-4-(4-((4′-chloro-5,5-dimethyl-3,4,5,6-tetrahydro-[1,1′-biphenyl]-2-yl)methyl)-2-methylpiperazin-1-yl)-N-((3-nitro-4-(((tetrahydro-2H-pyran-4-yl)methyl)amino)phenyl)sulfonyl)benzamide]
IC50 [1]: 4.55 nM | IC50 [2]: 6.2 nM | IC50 [3]: > 1000 nM

C[C@@H]1CN(CC2=C(c3ccc(Cl)cc3)CC(C)(C)CC2)CCN1c1ccc(C(=O)NS(=O)(=O)c2ccc(NCC3CCN(C4COC4)CC3)c([N+](=O)[O-])c2)c(Oc2cnc3[nH]ccc3c2)c1 [Example 9, (R)-2-((1H-pyrrolo[2,3-b]pyridin-5-yl)oxy)-4-(4-((4′-chloro-5,5-dimethyl-3,4,5,6-tetrahydro-[1,1′-biphenyl]-2-yl)methyl)-2-methylpiperazin-1-yl)-N-((3-nitro-4-(((1-(3-oxetan-yl)piperidin-4-yl)methyl)amino)phenyl)sulfonyl) benzamide]
IC50 [1]: 5.03 nM | IC50 [2]: 26 nM | IC50 [3]: > 1000 nM

C[C@@H]1CN(CC2=C(c3ccc(Cl)cc3)CC(C)(C)CC2)CCN1c1ccc(C(=O)NS(=O)(=O)c2cc(F)c(NCC3CCN(C4COC4)CC3)c([N+](=O)[O-])c2)c(Oc2cnc3[nH]ccc3c2)c1 [Example 10, (R)-2-((1H-pyrrolo[2,3-b]pyridin-5-yl)oxy)-4-(4-((4′-chloro-5,5-dimethyl-3,4,5,6-tetrahydro-[1,1′-biphenyl]-2-yl)methyl)-2-methylpiperazin-1-yl)-N-((3-fluoro-5-nitro-4-(((1-(3-oxetanyl)piperidin-4-yl)methyl)amino)phenyl)sulfonyl)benzamide]
IC50 [1]: 8.21 nM | IC50 [2]: 68 nM | IC50 [3]: > 1000 nM

C[C@@H]1CN(CC2=C(c3ccc(Cl)cc3)CC(C)(C)CC2)CCN1c1ccc(C(=O)NS(=O)(=O)c2cc(F)c(NCC3CCOCC3)c([N+](=O)[O-])c2)c(Oc2cnc3[nH]ccc3c2)c1 [Example 11]
IC50 [1]: 12.8 nM | IC50 [2]: 42 nM | IC50 [3]: > 1000 nM

C[C@@H]1CN(CC2=C(c3ccc(Cl)cc3)CC(C)(C)CC2)CCN1c1ccc(C(=O)NS(=O)(=O)c2ccc(NC[C@H]3COCCO3)c([N+](=O)[O-])c2)c(Oc2cnc3[nH]ccc3c2)c1 [Example 12]
IC50 [1]: 4.89 nM | IC50 [2]: 16 nM | IC50 [3]: > 1000 nM

C[C@H]1CN(CC2=C(c3ccc(Cl)cc3)CC(C)(C)CC2)CCN1c1ccc(C(=O)NS(=O)(=O)c2ccc(NCC3CCOCC3)c([N+](=O)[O-])c2)c(Oc2cnc3[nH]ccc3c2)c1 [Example 13, (S)-2-((1H-pyrrolo[2,3-b]pyridin-5-yl)oxy)-4-(4-((4′-chloro-5,5-dimethyl-3,4,5,6-tetrahydro-[1,1′-biphenyl]-2-yl)methyl)-2-methylpiperazin-1-yl)-N-((3-nitro-4-(((tetrahydro-2H-pyran-4-yl)methyl)amino)phenyl)sulfonyl)benzamide]
IC50 [1]: > 100 nM | IC50 [2]: > 500 nM | IC50 [3]: > 1000 nM

C[C@H]1CCC(CN2CCN(c3ccc(C(=O)NS(=O)(=O)c4cc(F)c(NCC5CCOCC5)c([N+](=O)[O-])c4)c(Oc4cnc5[nH]ccc5c4)c3)C[C@H]2C)=C(c2ccc(Cl)cc2)C1 [Example 14]
IC50 [1]: 2.35 nM | IC50 [2]: 3.8 nM | IC50 [3]: > 1000 nM

C[C@H]1CCC(CN2CCN(c3ccc(C(=O)NS(=O)(=O)c4ccc(NCC5CCOCC5)c([N+](=O)[O-])c4)c(Oc4cnc5[nH]ccc5c4)c3)C[C@H]2C)=C(c2ccc(Cl)cc2)C1 [Example 15, 2-((1H-pyrrolo[2,3-b]pyridin-5-yl)oxy)-4-((R)-4-(((S)-4′-chloro-5-methyl-3,4,5,6-tetrahydro-[1,1′-biphenyl]-2-yl)methyl)-3-methylpiperazin-1-yl)-N-((3-nitro-4-(((tetrahydro-2H-pyran-4-yl)methyl)amino)phenyl)sulfonyl)benzamide]
IC50 [1]: 5.99 nM | IC50 [2]: 19 nM | IC50 [3]: > 1000 nM

C[C@H]1CCC(CN2CCN(c3ccc(C(=O)NS(=O)(=O)c4ccc(NC[C@H]5COCCO5)c([N+](=O)[O-])c4)c(Oc4cnc5[nH]ccc5c4)c3)C[C@H]2C)=C(c2ccc(Cl)cc2)C1 [Example 16, N-((4-((((S)-1,4-dioxan-2-yl)methyl)amino)-3-nitrophenyl)sulfonyl)-2-((1H-pyrrolo[2,3-b]pyridin-5-yl)oxy)-4-((R)-4-(((S)-4′-chloro-5-methyl-3,4,5,6-tetrahydro-[1,1′-biphenyl]-2-yl)methyl)-3-methylpiperazin-1-yl) benzamide]
IC50 [1]: 3.41 nM | IC50 [2]: 8.8 nM | IC50 [3]: > 1000 nM
